Patent US8420817B2, “Tricyclic N-heteroaryl-carboxamide derivatives, preparation and therapeutic use thereof” (Sanofi, priority 2007, dated 2013)

Columns and labels:
[1] = target: T1, TRPV1 receptor (Rattus norvegicus, UniProt O35433); assay: Inhibition of the current induced by capsaicin on rat DRGs (whole-cell patch-clamp); type: cell-based; conditions: DRG neuron; compound at 10 nM; inhibition of the control capsaicin response; rat DRG neurons
T1 construct: The neurons of the DRG naturally express the TRPV1 receptor; endogenous in cells; host or cells: primary culture of newborn rat dorsal root ganglion neurons
T1 sequence (O35433 whole entry): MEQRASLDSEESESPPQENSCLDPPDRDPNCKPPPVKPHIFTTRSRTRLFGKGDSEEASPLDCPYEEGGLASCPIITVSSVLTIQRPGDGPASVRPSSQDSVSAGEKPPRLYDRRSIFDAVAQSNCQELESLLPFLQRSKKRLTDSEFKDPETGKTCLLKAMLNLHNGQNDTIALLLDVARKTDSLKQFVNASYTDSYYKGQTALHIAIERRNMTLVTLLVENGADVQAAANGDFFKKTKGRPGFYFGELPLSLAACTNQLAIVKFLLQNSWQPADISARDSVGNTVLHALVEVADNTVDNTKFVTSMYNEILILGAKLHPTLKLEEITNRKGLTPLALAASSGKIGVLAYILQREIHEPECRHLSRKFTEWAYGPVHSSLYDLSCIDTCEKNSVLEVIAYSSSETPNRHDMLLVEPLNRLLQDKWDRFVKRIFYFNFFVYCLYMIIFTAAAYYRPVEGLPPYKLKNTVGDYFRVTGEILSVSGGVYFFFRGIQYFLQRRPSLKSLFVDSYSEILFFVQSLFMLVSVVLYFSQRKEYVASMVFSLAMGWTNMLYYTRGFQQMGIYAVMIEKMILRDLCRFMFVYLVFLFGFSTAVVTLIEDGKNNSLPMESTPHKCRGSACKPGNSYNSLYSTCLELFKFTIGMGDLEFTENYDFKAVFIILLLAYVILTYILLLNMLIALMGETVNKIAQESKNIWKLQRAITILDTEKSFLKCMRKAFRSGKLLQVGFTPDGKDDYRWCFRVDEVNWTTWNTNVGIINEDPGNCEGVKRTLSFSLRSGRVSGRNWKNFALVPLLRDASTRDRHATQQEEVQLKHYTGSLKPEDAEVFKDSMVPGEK
Procedure: Test for Inhibition of the Current Induced by Capsaicin on Rat DRGs
• Primary culture of rat dorsal root ganglion (DRG) cells:
The neurons of the DRG naturally express the TRPV1 receptor.
Newborn rat DRG primary cultures are prepared from 1-day-old rat pups. Briefly, after dissection, the ganglia are trypsinized and the cells are mechanically dissociated by controlled trituration. The cells are resuspended in an Eagle's basal culture medium containing 10% of fetal calf serum, 25 mM KCl, 2 mM glutamine, 100 μg/ml gentamicin and 50 ng/ml of NGF, and then deposited onto laminin-coated glass cover slips (0.25×10^6 cells per cover slip) which are then placed in 12-well Corning dishes. The cells are incubated at 37° C. in a humidified atmosphere containing 5% CO2 and 95% air. […]
The measuring chambers (volume 800 μl) containing the cell preparation are placed on the platform of an inverted microscope (Olympus IMT2) equipped with Hoffman optics (Modulation Contrast, New York), and observed at the magnification of 400×. […] The overall currents (membrane potential fixed at −60 mV) are recorded with an Axopatch 1D amplifier (Axon Instruments, Foster City, Calif.), connected to a PC controlled by Pclamp8 software (Axon Instruments). The current traces are recorded on paper and simultaneously digitized (sampling frequency 15 to […]) and acquired on the hard drive of the PC. […]

[2] = target: T2, TRPV1 receptors (Mus musculus, UniProt Q704Y3); assay: Pain induced by intraplantar administration of capsaicin in mice; type: in vivo; conditions: 30 mg/kg orally 120 minutes before intraplantar capsaicin, n=10
T2 construct: from tissue; host or cells: living mice, hind paw (in vivo behavioural test)
T2 sequence (Q704Y3 whole entry): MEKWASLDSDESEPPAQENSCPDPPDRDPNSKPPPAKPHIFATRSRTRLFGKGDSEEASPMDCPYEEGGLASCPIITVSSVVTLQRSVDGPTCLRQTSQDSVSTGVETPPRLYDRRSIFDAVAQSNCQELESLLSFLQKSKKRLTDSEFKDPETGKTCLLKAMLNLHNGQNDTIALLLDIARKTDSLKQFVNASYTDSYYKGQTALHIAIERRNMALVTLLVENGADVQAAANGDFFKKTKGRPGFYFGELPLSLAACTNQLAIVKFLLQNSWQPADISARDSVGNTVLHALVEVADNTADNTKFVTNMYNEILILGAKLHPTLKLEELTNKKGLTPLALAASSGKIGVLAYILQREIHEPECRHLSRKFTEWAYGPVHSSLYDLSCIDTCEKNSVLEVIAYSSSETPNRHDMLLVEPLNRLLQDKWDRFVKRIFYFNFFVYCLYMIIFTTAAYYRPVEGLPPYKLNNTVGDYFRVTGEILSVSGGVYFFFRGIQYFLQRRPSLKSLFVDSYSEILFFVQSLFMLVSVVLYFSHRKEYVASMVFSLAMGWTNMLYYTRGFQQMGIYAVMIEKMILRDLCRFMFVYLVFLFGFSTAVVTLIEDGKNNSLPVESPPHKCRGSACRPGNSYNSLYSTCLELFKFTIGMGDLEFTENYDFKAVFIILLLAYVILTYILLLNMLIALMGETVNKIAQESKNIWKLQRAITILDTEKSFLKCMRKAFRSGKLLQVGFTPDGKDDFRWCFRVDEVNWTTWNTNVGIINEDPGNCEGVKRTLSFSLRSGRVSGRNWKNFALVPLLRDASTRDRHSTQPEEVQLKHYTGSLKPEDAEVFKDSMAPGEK
Procedure: Pain Induced by Intraplantar Administration of Capsaicin in Mice
The intraplantar injection of capsaicin in mice rapidly produces a short-duration nociceptif behavior which is manifested in instances of licking, chewing and flexing of the treated paw. These nociceptive responses are probably linked to activation of the local TRPV1 receptors by the capsaicin.
(E)-capsaicin is initially diluted at 3 mg/ml in DMSO, then diluted again, for its final use, at 1.5 μg/20 μl in physiological saline. Administration of solvent has no effect at all on the behavior of the mouse. The capsaicin is injected into one of the hind paws of the animal, at the level of the upper face.
The compounds to be tested are administered orally 120 minutes prior to injection of capsaicin. […] The nociceptif behavior of the animals is then immediately evaluated by the person carrying out the experiment, and the duration of the behavioral manifestations induced by the capsaicin is recorded with a stop watch for a time of 2 minutes (licking and chewing, total or partial flexing of the injected paw).
For each compound an inhibition is determined which corresponds to the mean of the nociceptive responses induced by the capsaicin in response to a dose of test product (expressed in mg/kg) administered orally, on a sample of a specific number of mice (n).

| melting point [°C] | % inhibition of nociceptive responses induced by capsaicin [2] | Compound | inhibition at 0.01 µM [1] [%] |
| --- | --- | --- | --- |
| 222 to 223 |  | CSc1ccc2cc(C(=O)Nc3cnc4c(c3)nc3n4CCC3)n(Cc3cccc(F)c3)c2c1 [Compound 22, N-(7,8-Dihydro-6H-pyrrolo[2′,1′:2,3]imidazo[4,5-b]pyridin-3-yl)-6-methylthio-1-(3-fluorobenzyl)-1H-indole-2-carboxamide] |  |
| 279 to 280 |  | O=C(Nc1cnc2c(c1)nc1n2CCC1O)c1cc2cc(C(F)(F)F)cnc2n1Cc1cccc(F)c1 (single isomer, unassigned; (-)) [Compound 36, (−)-N-(6-Hydroxy-7,8-dihydro-6H-pyrrolo[2′,1′:2,3]imidazo[4,5-b]pyridin-3-yl)-5-trifluoromethyl-1-(3-fluorobenzyl)-1H-pyrrolo[2,3-b]pyridine-2-carboxamide] |  |
| 275 to 278 |  | CC(C)c1ccc2cc(C(=O)Nc3cnc4c(c3)nc3n4CCC3)n(Cc3cccc(F)c3)c2c1 [Compound 17, N-(7,8-Dihydro-6H-pyrrolo[2′,1′:2,3]imidazo[4,5-b]pyridin-3-yl)-6-isopropyl-1-(3-fluorobenzyl)-1H-indole-2-carboxamide] |  |
| 286 to 288 |  | Cc1ccc(C)c2c1cc(C(=O)Nc1cnc3c(c1)nc1n3CCC1)n2Cc1cccc(F)c1 |  |
| 254 to 255 | 63% (+/−11%) | O=C(Nc1cnc2c(c1)nc1n2CCC1O)c1cc2cc(C(F)(F)F)ccc2n1Cc1cccc(F)c1 (racemic) [Compound 29, N-(6-Hydroxy-7,8-dihydro-6H-pyrrolo[2′,1′:2,3]imidazo[4,5-b]pyridin-3-yl)-5-trifluoromethyl-1-(3-fluorobenzyl)-1H-indole-2-carboxamide] |  |

| Compound | melting point [°C] | % inhibition of nociceptive responses induced by capsaicin [2] | inhibition at 0.01 µM [1] [%] |
| --- | --- | --- | --- |
| O=C(Nc1cnc2c(c1)nc1n2CCC1)c1cc2cc(F)ccc2n1Cc1cccc(F)c1 [Compound 1, N-(7,8-Dihydro-6H-pyrrolo[2′,1′:2,3]imidazo[4,5-b]pyridin-3-yl)-5-fluoro-1-(3-fluorobenzyl)-1H-indole-2-carboxamide] | 227 to 229 |  | 69 |
